From patent US20100113550A1, “New Crystal Forms” (BIAL - PORTELA AND CA, S.A., priority 2006, published 2010) come the findings set out here.

Broadly, the solubility is how much of the substance goes into solution per volume.

Holding throughout (format): physicochemical
The nature of series [1]: Approximate solubilities (solvent added until a solution forms). The source says:
Approximate solubilities of compound 1, Form A in aqueous mixtures containing high concentrations of organic solvents are given in Table 1. [table]

Series [2] is described as follows: RH stability: storage at controlled relative humidity or drying, checked by XRPD and for deliquescence. From the text:
Form A samples were stored at lower relative humidities of approximately 9-11, 23 and 32% RH and analyzed by XRPD and Karl-Fischer titration analysis after four weeks (Tables 30 and 31). The samples appeared to be Form A by XRPD. […] Note that the water content in the samples at 23 and 32% RH was slightly higher compared to the initial batch of Form A.
Form X samples were stored at relative humidities of approximately 43, 75 and 90% RH and analyzed by XRPD and Karl-Fischer titration analysis after five weeks (Tables 34 and 35).

Series [3] can be described thus: Coulometric Karl Fischer titration for water determination. The protocol: Coulometric Karl Fischer (KF) analysis for water determination was performed using a Mettler Toledo DL39 Karl Fischer titrator. Samples were placed in the KF titration vessel containing approximately Hydranal—Coulomat AD and mixed for 60 seconds to ensure dissolution. The sample was then titrated by means of a generator electrode which produces iodine by electrochemical oxidation: 2I−=>I2+2e. Three replicates were obtained to ensure reproducibility. A NIST-traceable water standard (Hydranal Water Standard 10.0) was analyzed to check the operation of the coulometer. Data were collected and analyzed using LabX Pro Titration v2.10.000.

Series [4] is described as follows: RH stability: storage at controlled relative humidity or drying, checked by XRPD and for deliquescence. The source holds these as a separate data set.
The nature of series [5]: Interconversion studies of Forms A and C (slurries, XRPD). The protocol: A slurry of compound 1, Form A, was prepared in a given solvent and loaded on an orbit shaker at either ambient or elevated temperature for at least 1 day. The liquid phase of the slurry was drawn off with a pipette and filtered through a 0.2-μm filter. A slurry containing compound 1 forms A and C was prepared using the filtered liquid phase from the Form A slurry. The mixture was then loaded on an orbit shaker in a sealed vial at either ambient or elevated temperature for 1 or 7 days. The solids were isolated by vacuum filtration or by drawing the liquid phase off with a pipette and allowing the solids to air dry at ambient conditions prior to analysis. The resulting Forms were characterised by XRPD.

Where [6] appears, read: acetone:water 99:1, hydrochloride.

Each structure is given as a SMILES string. Where two headings read alike, the source gives them in different places.

For `Cl.NCCc1c[nH]c(=S)n1[C@H]1COc2c(F)cc(F)cc2C1` [Amorphous, (R)-5-(2-Aminoethyl)-1-(6,8-difluorochroman-3-yl)-1,3-dihydroimidazole-2-thione hydrochloride], the solubility is 8 mg/mL in series [1] (2,2,2-trifluoroethanol, 50 °C, organic solvent or mixture, 2,2,2-trifluoroethanol, 50° C., read-out: Solubility (approximate) at elevated temperature); 11 mg/mL in series [1] (ethanol, 53 °C, organic solvent or mixture, ethanol, 53° C., read-out: Solubility (approximate) at elevated temperature); < 1 mg/mL in series [1] (methyl iso-butyl ketone, organic solvent or mixture, methyl iso-butyl ketone, read-out: Solubility (approximate)). For the same compound, the “Solubility (approximate)” value in series [1] (2,2,2-trifluoroethanol, hydrochloride) is 8 mg/mL; in series [1] (acetone, hydrochloride), 49 mg/mL; in series [1] (acetonitrile) it was <1 mg/mL; in series [1] (ethanol, hydrochloride) it was 10 mg/mL; in series [1] (ethyl acetate) it was <1 mg/mL; in series [1] (iso-propanol, hydrochloride) it was 16 mg/mL. The “Solubility (approximate)” value in series [1] (methanol, hydrochloride) amounted to 50 mg/mL; in series [1] (methyl ethyl ketone, hydrochloride), 64 mg/mL; in series [1] (tetrahydrofuran (THF), hydrochloride) it was 100 mg/mL; in series [1] (water, hydrochloride), 36 mg/mL. Besides, the “Solubility compared with the other forms (in words)” value in series [1] (comparison between forms, listed as Amorphous material, hydrochloride) was “higher solubilities in most organic solvents and water compared to Forms A, B, and C”.

Consider `Cl.NCCc1c[nH]c(=S)n1[C@H]1COc2c(F)cc(F)cc2C1` [Form B, (R)-5-(2-Aminoethyl)-1-(6,8-difluorochroman-3-yl)-1,3-dihydroimidazole-2-thione hydrochloride], for which the “Stability under high relative humidities” value in series [2] (high relative humidities, long periods of time) is “remain stable”. Further, in series [3] (after 2 days, 3 weeks and 8 weeks at both 75 and 90% RH), the “Change in the water content on storage” value is recorded as “No significant changes”. The “% water” value in series [3] (~55% RH, 8 days) stood at 5.34%; in series [3] (~75% RH, 3 weeks), 6.02%; in series [3] (~75% RH, 8 weeks) it was 6.12%; in series [3] (~75% RH, 2 days), 6.23%; in series [3] (~90% RH, 3 weeks), 5.99%; in series [3] (~90% RH, 8 weeks), 6.46%. For the same compound, in series [3] (~90% RH, 2 days), the “% water” value turned out to be 6.70%. The Moles of water in series [3] (~55% RH, 8 days) was 1.1 mol; in series [3] (~75% RH, 3 weeks) it was 1.24 mol; in series [3] (~75% RH, 8 weeks), 1.26 mol; in series [3] (~75% RH, 2 days), 1.28 mol; in series [3] (~90% RH, 3 weeks), 1.23 mol; in series [3] (~90% RH, 8 weeks), 1.33 mol. Further, in series [3] (~90% RH, 2 days), the Moles of water stood at 1.39 mol. For the same compound, the “Stability at relative humidity” value in series [4] (90% relative humidity) is listed as “stable”. Also, the Deliquescence entry in series [4] (90% relative humidity, after 10 days) is “no deliquescence was observed”. The “RH stability, XRPD patterns” value in series [4] (after 2 days, 3, 7 and 8 weeks at both 75 and 90% RH) was “did not change”. In addition, the “Form conversion upon desorption (drying)” value in series [4] (drying) is reported as “convert back to Form A”. Moreover, the “Weight change” value amounted to 10.7 mg in series [4] (~55% RH, 8 days); 11.0 mg in series [4] (~75% RH, 2 days); 11.6 mg in series [4] (~90% RH, 2 days). In addition, the “Weight change, %” value in series [4] (~55% RH, 8 days) is 9.5%; in series [4] (~75% RH, 2 days) it was 4.5%; in series [4] (~90% RH, 2 days), 4.6%. Also, the Observations entry is listed as “looks dry” in series [4] (~55% RH, 8 days (Table 32)); “looks dry” in series [4] (~55% RH, 8 days (Table 33)); “looks dry” in series [4] (~75% RH, 3 weeks (Table 32)); “looks dry” in series [4] (~75% RH, 3 weeks (Table 33)); “looks dry” in series [4] (~75% RH, 7 weeks); “looks dry” in series [4] (~75% RH, 8 weeks (Table 32)). Moreover, the Observations result in series [4] (~75% RH, 8 weeks (Table 33)) is reported as “looks dry”; in series [4] (~90% RH, 3 weeks (Table 32)) it was “looks dry”; in series [4] (~90% RH, 3 weeks (Table 33)), “looks dry”; in series [4] (~90% RH, 7 weeks), “looks dry”; in series [4] (~90% RH, 8 weeks (Table 32)), “looks dry”; in series [4] (~90% RH, 8 weeks (Table 33)) it was “looks dry”. Also, the “Solubility (approximate)” value in series [1] (setting [6]) is reported as <29 mg/mL; in series [1] (acetone, hydrochloride), 2 mg/mL; in series [1] (acetonitrile:water 95:5, hydrochloride), <27 mg/mL; in series [1] (ethanol:water 99:1, hydrochloride) it was <28 mg/mL; in series [1] (ethanol, hydrochloride), 4 mg/mL; in series [1] (methanol, hydrochloride) it was 15 mg/mL. The “Solubility by kind of solvent (in words)” value in series [1] (organic solvents and aqueous mixtures, hydrochloride) is on record as “higher solubilities in aqueous solvent mixtures compared to organic solvents”.

For `Cl.NCCc1c[nH]c(=S)n1[C@H]1COc2c(F)cc(F)cc2C1` [Form A, (R)-5-(2-Aminoethyl)-1-(6,8-difluorochroman-3-yl)-1,3-dihydroimidazole-2-thione hydrochloride], the Observations entry in series [2] (~23% RH, 4 weeks) was “looks dry”; in series [2] (~32% RH, 4 weeks), “looks dry”. Besides, the “% water” value in series [3] (~9-11% RH, 11 days) turned out to be 1.70%; in series [3] (~23% RH, 4 weeks), 2.96%; in series [3] (~32% RH, 4 weeks), 3.24%. Also, the Moles of water worked out at 0.33 mol in series [3] (~9-11% RH, 11 days); 0.59 mol in series [3] (~23% RH, 4 weeks); 0.65 mol in series [3] (~32% RH, 4 weeks). Also, the “Stability at relative humidity” value is reported as “stable” in series [4] (31% relative humidity, after two weeks) and “stable” in series [4] (43% relative humidity, after five days). The “Form conversion under high laboratory humidity” value in series [4] (typically 43% to 90% relative humidity, within 1 day to 2 weeks) was “converts to Form B”. Also, the solubility in series [1] (1,4-dioxane:water 99:1, organic solvent or mixture, 1,4-dioxane:water 99:1, read-out: Solubility (approximate)) was < 24 mg/mL; in series [1] (acetone:water 90:10, organic solvent or mixture, acetone:water 90:10 (9:1), read-out: Solubility (approximate)), > 23 mg/mL; in series [1] (acetonitrile:water 90:10, organic solvent or mixture, acetonitrile:water 90:10 (9:1), read-out: Solubility (approximate)) it was > 23 mg/mL; in series [1] (acetonitrile:water 95:5, organic solvent or mixture, acetonitrile:water 95:5, read-out: Solubility (approximate)), < 23 mg/mL; in series [1] (ethanol:water 90:10, organic solvent or mixture, ethanol:water 90:10 (9:1), read-out: Solubility (approximate)) it was > 21 mg/mL; in series [1] (ethanol:water 99:1, organic solvent or mixture, ethanol:water 99:1, read-out: Solubility (approximate)), < 25 mg/mL. The “Solubility (approximate)” value in series [1] (setting [6]) is recorded as 1 mg/mL.

Consider `Cl.NCCc1c[nH]c(=S)n1[C@H]1COc2c(F)cc(F)cc2C1` [Forms A and C, (R)-5-(2-Aminoethyl)-1-(6,8-difluorochroman-3-yl)-1,3-dihydroimidazole-2-thione hydrochloride], for which the “Form resulting from interconversion slurry” value in series [5] (1-day slurries at room temperature, ethanol and acetone:water 99:1) was “mixture of Forms C and B, with Form B as a minor component”; in series [5] (acetone:water 99:1, 40° C., 1-day slurry), “mixture of Forms C and A, with Form A as a minor component”; in series [5] (after one week, ambient temperature and 40° C.), “Form C”; in series [5] (ethanol, 40° C., 1-day slurry), “Form C”.

In the case of `Cl.NCCc1c[nH]c(=S)n1[C@H]1COc2c(F)cc(F)cc2C1` [Form X, (R)-5-(2-Aminoethyl)-1-(6,8-difluorochroman-3-yl)-1,3-dihydroimidazole-2-thione hydrochloride], the Observations entry in series [2] (90% RH, 5 weeks (Table 34)) is reported as “looks dry”; in series [4] (43% RH, 5 weeks (Table 34)) it was “looks dry”; in series [4] (75% RH, 5 weeks (Table 34)), “looks dry”; in series [4] (~43% RH, 5 weeks (Table 35)), “looks dry”; in series [4] (~43% RH, 7 days) it was “looks dry”; in series [4] (~75% RH, 5 weeks (Table 35)), “looks dry”. Moreover, the Observations entry in series [4] (~75% RH, 7 days) is on record as “looks dry”; in series [4] (~90% RH, 5 weeks (Table 35)) it was “looks dry”; in series [4] (~90% RH, 7 days) it was “looks dry”. Further, in series [2] (90% RH, after 4 days and 5 weeks), the “Form conversion at high relative humidity” value is reported as “converted to Form B”. In addition, the “% water” value amounted to 5.52% in series [3] (43% RH, 5 weeks); 8.74% in series [3] (75% RH, 5 weeks); 6.47% in series [3] (90% RH, 5 weeks). Moreover, the Moles of water stood at 1.13 mol in series [3] (43% RH, 5 weeks); 1.85 mol in series [3] (75% RH, 5 weeks); 1.34 mol in series [3] (90% RH, 5 weeks). Further, the “Change by XRPD on drying” value in series [4] (after 6 days and 2 weeks of drying at approximately 70° C.) is “did not change”. Further, the “Weight change” value in series [4] (~43% RH, 7 days) worked out at 1.2 mg; in series [4] (~75% RH, 7 days), 2.4 mg; in series [4] (~90% RH, 1 day), 2.3 mg; in series [4] (~90% RH, 7 days), 0.9 mg. The “Weight change, %” value in series [4] (~43% RH, 7 days) was determined as 3.4%; in series [4] (~75% RH, 7 days) it was 6.0%; in series [4] (~90% RH, 1 day), 5.6%; in series [4] (~90% RH, 7 days) it was 2.1%.
